{"source": "patent US20100221200A1", "about": "“COMPOSITIONS AND METHODS FOR SKIN CARE” (THE OHIO STATE UNIVERSITY RESEARCH FOUNDATION, priority 2007, published 2010)", "key": {"[1]": {"test_system": "isolated or transplanted organs including heart, lung and kidneys", "details": "cited from earlier work"}, "[2]": {"test_system": "summer-active ground squirrels", "details": "administered to summer-active ground squirrels; cited from earlier work"}, "[3]": {"test_system": "skin of the malar surface of the face", "assay": "Blinded split-face topical application of deltorphin cream: skin appearance and wrinkles", "type": "in vivo", "description": "(§1) A test subject (body weight ˜71 kg) received an application of 10 μg deltorphin, constituted in an inert base, to the malar surface on the left side of the face extending from the periorbital region to the mandible. The inert base (without the deltorphin) was applied to the right side of the face but the subject was blind to which cream contained the deltorphin. The cream was applied twice daily, in the morning and night. After 3 weeks, the subject was observed.\nA test subject (˜55 kg) received an application of 1 μg of deltorphin in an inert base to the malar surface of the right side of the face, with an identical inert cream applied to the left in a blinded fashion (the subject was unaware of which cream contained the active peptide). After three weeks of morning and evening application of the cream (no other topical agents were applied), the subject was scored for appearance.\n(§2) A test subject (˜61 kg) received an application of 100 μg of deltorphin in an inert base to the malar surface on the right side, with an equal amount of inert base, but no active peptide, applied blindly to the left side of the face. The two creams were applied twice daily, morning and night, for three weeks prior to being observed."}, "[4]": {"test_system": "skin of the malar surface of the face", "assay": "Blinded split-face topical application of deltorphin cream: local tolerance (irritation, allergy)", "type": "in vivo", "description": "as §1, §2"}, "[5]": {"details": "Example 1: subject, 10 μg deltorphin in inert base, twice daily, 3 weeks"}, "[6]": {"details": "Example 3: subject, 100 μg deltorphin in inert base, twice daily, three weeks"}}, "note": "Square brackets hold non-standard residues; d marks the D form. Peptide text beside a SMILES is read from it.", "data": [{"smiles": "CC(C)C[C@@H](NC(=O)[C@H](Cc1ccccc1)NC(=O)CNC(=O)[C@@H](C)NC(=O)[C@@H](N)Cc1ccc(O)cc1)C(=O)O", "note": "[DADLE, Tyr-D-Ala-Gly-Phe-D-Leu]", "values": [{"measurement": "viability and preservation of organs", "setting": "[1]", "value": "improves the viability and preservation"}, {"measurement": "induction of hibernation", "setting": "[2]", "value": "induces hibernation"}]}, {"smiles": "CSCC[C@H](NC(=O)[C@H](CC(C)C)NC(=O)[C@H](Cc1c[nH]cn1)NC(=O)[C@H](Cc1ccccc1)NC(=O)[C@@H](CCSC)NC(=O)[C@@H](N)Cc1ccc(O)cc1)C(=O)N[C@@H](CC(=O)O)C(N)=O", "note": "[deltorphin, Tyr-D-Met-Phe-His-Leu-Met-Asp-NH2] (H-Y[dM]FHLMD-NH2)", "values": [{"measurement": "appearance of treated side of the face versus inert-base side", "setting": "[3]; Example 1: subject, 10 μg deltorphin in inert base, left side, twice daily, 3 weeks", "value": "noticeable improved appearance"}, {"measurement": "wrinkles (fine and moderate)", "setting": "[3]; [5]", "value": "appeared diminished"}, {"measurement": "wrinkles, particularly in the periorbital region", "setting": "[3]; Example 2: subject, 1 μg deltorphin in inert base, morning and evening, three weeks", "value": "marked reduction in wrinkles"}, {"measurement": "appearance of treated side of the face versus inert-base side", "setting": "[3]; Example 2: subject, 1 μg deltorphin in inert base, right side, morning and evening, three weeks", "value": "noticeable difference was apparent"}, {"measurement": "appearance of treated side of the face versus inert-base side", "setting": "[3]; Example 3: subject, 100 μg deltorphin in inert base, right side, twice daily, three weeks", "value": "significant and visible improvements"}, {"measurement": "wrinkles (fine and deep)", "setting": "[3]; [6]", "value": "readily notable improvements and diminishment in wrinkles"}]}, {"smiles": "CSCC[C@H](NC(=O)[C@H](CC(C)C)NC(=O)[C@H](Cc1cnc[nH]1)NC(=O)[C@H](Cc1ccccc1)NC(=O)[C@@H](CCSC)NC(=O)[C@@H](N)Cc1ccc(O)cc1)C(=O)N[C@@H](CC(=O)O)C(N)=O", "note": "[deltorphin, Tyr-D-Met-Phe-His-Leu-Met-Asp-NH2] (H-Y[dM]FHLMD-NH2)", "values": [{"measurement": "signs of irritation, redness, heat or swelling", "setting": "[4]; [5]", "value": "no sign of any irritation, no redness, heat or swelling"}, {"measurement": "eye irritation after inadvertent contact of the cream with the eye", "setting": "[4]; Example 3: subject, 100 μg deltorphin cream, one occasion, subject's report", "value": "without any significant eye irritation or redness"}, {"measurement": "signs of allergy, hypersensitivity or irritation (redness, swelling, heat, pruritus)", "setting": "[4]; [6]", "value": "no signs of any allergy, hypersensitivity or irritation"}]}]}
